Experiment [1] has as its target human glucagon receptor (hGCGR) (Homo sapiens, UniProt P47871). Put plainly: cAMP production (HTRF) in CHO cells expressing hGCGR. The conditions noted are these: Table 6, peptides modified at position 17; cAMP in CHO hGCGR cells; geometric mean; read-out: hGluc-R EC50. Further details: expressed in transfected cells. It counts as cell-based. How it is done:
(§1) Cells were re-suspended in assay buffer at a batch-dependent optimized concentration (typically hGLP-1R cells at 1×10^5 cells/mL, hGCGR cells at 2×10^5 cells/mL).
(§2) Cells were added to the assay plate using a multidrop dispenser and incubated at room temperature for 30 minutes before measuring the cAMP level using a cAMP dynamic 2 homogeneous time resolved Fluorescence (HTRF) kit (Cisbio Bioassays #62AM4PEJ) following the two-step protocol as per manufacturer's recommendations. In brief, anti-cAMP cryptate (donor fluorophore) and cAMP-d2 (acceptor fluorophore) were made up separately by diluting each 1 in 20 in conjugate and lysis buffer provided in the kit. Anti-CAMP cryptate was added to all wells of the assay plate, followed by cAMP-d2 added to all wells except non-specific binding (NSB) wells (to which conjugate and lysis buffer was added).
(§3) Data was transformed to % Delta F as described in the manufacturer's guidelines and analyzed by 4-parameter logistic fit to determine EC50 values.
For orientation: Cyclic AMP is a second messenger, typically raised through Gs and lowered through Gi signalling.

The target of experiment [2] is human GLP-1 receptor (hGLP-1R) (Homo sapiens, UniProt P43220). Put plainly: cAMP production (HTRF) in CHO cells expressing hGLP-1R. It counts as cell-based. On the set-up: expressed in transfected cells. Conditions: for EC50: Table 6, peptides modified at position 17, cAMP in CHO hGLP-1R cells, geometric mean, read-out: hGLP-1R EC50; for % Relative Potency Ratio: % GLP-1R activity relative to GLP-1 / % GlucR activity relative to glucagon. How it is done:
as §1, §2, §3

Starred links: 1 amine or outer side, 2 acyl side, 3 side chain; linkers in the order of their positions; H or OH if unused. Non-standard residues stand in square brackets, D forms with d. Residues, ends and D or L forms follow the SMILES beside them. Groups on a side chain read outwards from the residue. *: point of attachment. C20 diacid = O=C(O)CCCCCCCCCCCCCCCCCCC(=O)*; C18 diacid = O=C(O)CCCCCCCCCCCCCCCCC(=O)*; γGlu = O=C(O)[C@H](CCC(=O)[*:2])N[*:1]; αMeF = C[C@](N)(Cc1ccccc1)C(=O)O; AEEA = NCCOCCOCC(=O)O; Aib = CC(C)(N)C(=O)O

These results are taken from patent publication US20250353891A1 (MEDIMMUNE LIMITED, priority 2022, published 2025).

Broadly, the EC50 is the concentration giving half of the maximal effect.

Sequence of human GLP-1 receptor (hGLP-1R) (P43220 24-463): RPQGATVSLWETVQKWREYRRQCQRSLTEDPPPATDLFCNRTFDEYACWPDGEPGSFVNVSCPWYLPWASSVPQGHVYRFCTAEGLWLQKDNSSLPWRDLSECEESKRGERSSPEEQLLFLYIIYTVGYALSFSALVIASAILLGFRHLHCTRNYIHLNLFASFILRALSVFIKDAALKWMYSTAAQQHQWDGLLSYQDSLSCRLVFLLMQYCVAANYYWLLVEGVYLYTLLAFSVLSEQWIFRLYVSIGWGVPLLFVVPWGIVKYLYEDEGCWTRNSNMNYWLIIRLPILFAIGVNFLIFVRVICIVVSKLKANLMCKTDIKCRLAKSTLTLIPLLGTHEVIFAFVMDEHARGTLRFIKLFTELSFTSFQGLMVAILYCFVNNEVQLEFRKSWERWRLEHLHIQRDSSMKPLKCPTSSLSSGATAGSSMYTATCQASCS
Sequence of human glucagon receptor (hGCGR) (P47871 26-477): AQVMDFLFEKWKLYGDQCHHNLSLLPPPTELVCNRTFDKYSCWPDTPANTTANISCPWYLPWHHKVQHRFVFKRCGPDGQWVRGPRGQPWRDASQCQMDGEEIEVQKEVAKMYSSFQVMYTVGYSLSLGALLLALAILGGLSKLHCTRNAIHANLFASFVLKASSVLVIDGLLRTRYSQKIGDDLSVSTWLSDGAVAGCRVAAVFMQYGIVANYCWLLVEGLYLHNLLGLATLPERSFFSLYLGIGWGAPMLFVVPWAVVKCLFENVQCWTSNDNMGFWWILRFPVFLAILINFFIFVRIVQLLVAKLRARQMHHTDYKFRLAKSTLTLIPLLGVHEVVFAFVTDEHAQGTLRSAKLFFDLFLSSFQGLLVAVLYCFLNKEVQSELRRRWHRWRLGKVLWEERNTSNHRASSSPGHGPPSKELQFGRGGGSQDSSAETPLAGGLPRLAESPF

With `CC[C@H](C)[C@H](NC(=O)C(C)(C)NC(=O)[C@H](CCC(N)=O)NC(=O)[C@@H](NC(=O)[C@](C)(Cc1ccccc1)NC(=O)[C@H](CC(=O)O)NC(=O)[C@H](CCC(N)=O)NC(=O)[C@H](C)NC(=O)[C@H](C)NC(=O)[C@H](CCCCNC(=O)COCCOCCNC(=O)COCCOCCNC(=O)CC[C@H](NC(=O)CCCCCCCCCCCCCCCCC(=O)O)C(=O)O)NC(=O)[C@H](CO)NC(=O)[C@H](CC(=O)O)NC(=O)[C@H](CC(C)C)NC(=O)C(C)(C)NC(=O)[C@H](CCCCN)NC(=O)[C@H](CO)NC(=O)[C@@H](NC(=O)[C@H](CC(=O)O)NC(=O)[C@H](CO)NC(=O)[C@@H](NC(=O)[C@](C)(Cc1ccccc1)NC(=O)[C@H](CO)NC(=O)CNC(=O)[C@H](CCC(N)=O)NC(=O)[C@H](CO)NC(=O)[C@@H](N)Cc1c[nH]cn1)[C@@H](C)O)C(C)C)C(C)C)C(=O)N[C@@H](C)C(=O)N[C@@H](CC(N)=O)C(N)=O` [Peptide 1] (H-HSQGS[αMeF]TSDVSK[Aib]LDSK([AEEA-AEEA-γGlu-C18 diacid])AAQD[αMeF]VQ[Aib]IAN-NH2; N-terminus assumed), the EC50 in experiment [1] was above 27100 pM; in experiment [2] it was 3200 pM.

As for `CC[C@H](C)[C@H](NC(=O)[C@H](Cc1c[nH]c2ccccc12)NC(=O)[C@H](CCC(N)=O)NC(=O)[C@@H](NC(=O)[C@](C)(Cc1ccccc1)NC(=O)[C@H](CC(=O)O)NC(=O)[C@H](CCC(N)=O)NC(=O)[C@H](C)NC(=O)[C@H](C)NC(=O)[C@H](CCCCNC(=O)COCCOCCNC(=O)COCCOCCNC(=O)CC[C@H](NC(=O)CCCCCCCCCCCCCCCCCCC(=O)O)C(=O)O)NC(=O)[C@H](CO)NC(=O)[C@H](CC(=O)O)NC(=O)[C@H](CC(C)C)NC(=O)[C@](C)(Cc1ccccc1)NC(=O)[C@H](CCCCN)NC(=O)[C@H](CO)NC(=O)[C@@H](NC(=O)[C@H](CC(=O)O)NC(=O)[C@H](CO)NC(=O)[C@@H](NC(=O)[C@](C)(Cc1ccccc1)NC(=O)[C@H](CO)NC(=O)CNC(=O)[C@H](CCC(N)=O)NC(=O)[C@H](CO)NC(=O)[C@@H](N)Cc1c[nH]cn1)[C@@H](C)O)C(C)C)C(C)C)C(=O)N[C@@H](C)C(=O)N[C@@H](CC(N)=O)C(=O)N[C@H](C(N)=O)[C@@H](C)O` [Peptide 2] (H-HSQGS[αMeF]TSDVSK[αMeF]LDSK([AEEA-AEEA-γGlu-C20 diacid])AAQD[αMeF]VQWIANT-NH2; N-terminus assumed), the EC50 worked out at 4190 pM in experiment [1] and 1280 pM in experiment [2]. Also, the “% Relative Potency Ratio” value in experiment [2] (Table 6) stood at 6.5.

With `CC[C@H](C)[C@H](NC(=O)[C@H](Cc1c[nH]c2ccccc12)NC(=O)[C@H](CCC(N)=O)NC(=O)[C@@H](NC(=O)[C@H](Cc1ccccc1)NC(=O)[C@H](CC(=O)O)NC(=O)[C@H](CCC(N)=O)NC(=O)[C@H](C)NC(=O)[C@H](C)NC(=O)[C@H](CCCCNC(=O)CC[C@H](NC(=O)CCCCCCCCCCCCCCCCC(=O)O)C(=O)O)NC(=O)[C@H](CO)NC(=O)[C@H](CC(=O)O)NC(=O)[C@H](CC(C)C)NC(=O)[C@](C)(Cc1ccccc1)NC(=O)[C@H](CCCCN)NC(=O)[C@H](CO)NC(=O)[C@@H](NC(=O)[C@H](CC(=O)O)NC(=O)[C@H](CO)NC(=O)[C@@H](NC(=O)[C@](C)(Cc1ccccc1)NC(=O)[C@H](CO)NC(=O)CNC(=O)[C@H](CCC(N)=O)NC(=O)[C@H](CO)NC(=O)[C@@H](N)Cc1c[nH]cn1)[C@@H](C)O)C(C)C)C(C)C)C(=O)N[C@@H](C)C(=O)N[C@@H](CC(N)=O)C(=O)N[C@H](C(N)=O)[C@@H](C)O` [Peptide 3] (H-HSQGS[αMeF]TSDVSK[αMeF]LDSK([γGlu-C18 diacid])AAQDFVQWIANT-NH2; N-terminus assumed), the EC50 in experiment [1] was determined as 149 pM; in experiment [2], 69 pM. Moreover, in experiment [2] (Table 6), the “% Relative Potency Ratio” value is listed as 4.3.

As to `CC[C@H](C)[C@H](NC(=O)[C@H](Cc1c[nH]c2ccccc12)NC(=O)[C@H](CCC(N)=O)NC(=O)[C@@H](NC(=O)[C@H](Cc1ccccc1)NC(=O)[C@H](CC(=O)O)NC(=O)[C@H](CCC(N)=O)NC(=O)[C@H](C)NC(=O)[C@H](C)NC(=O)[C@H](CCCCNC(=O)COCCOCCNC(=O)COCCOCCNC(=O)CC[C@H](NC(=O)CCCCCCCCCCCCCCCCC(=O)O)C(=O)O)NC(=O)[C@H](CO)NC(=O)[C@H](CC(=O)O)NC(=O)[C@H](CC(C)C)NC(=O)[C@](C)(Cc1ccccc1)NC(=O)[C@H](CCCCN)NC(=O)[C@H](CO)NC(=O)[C@@H](NC(=O)[C@H](CC(=O)O)NC(=O)[C@H](CO)NC(=O)[C@@H](NC(=O)[C@](C)(Cc1ccccc1)NC(=O)[C@H](CO)NC(=O)CNC(=O)[C@H](CCC(N)=O)NC(=O)[C@H](CO)NC(=O)[C@@H](N)Cc1c[nH]cn1)[C@@H](C)O)C(C)C)C(C)C)C(=O)N[C@@H](C)C(=O)N[C@@H](CC(N)=O)C(=O)N[C@H](C(N)=O)[C@@H](C)O` [Peptide 4] (H-HSQGS[αMeF]TSDVSK[αMeF]LDSK([AEEA-AEEA-γGlu-C18 diacid])AAQDFVQWIANT-NH2), the figures for the EC50 in experiment [1] and in experiment [2] were 1170 pM and 240 pM, respectively. In addition, in experiment [2] (Table 6), the “% Relative Potency Ratio” value turned out to be 9.6.

On to `CC[C@H](C)[C@H](NC(=O)C(C)(C)NC(=O)[C@H](CCC(N)=O)NC(=O)[C@@H](NC(=O)[C@](C)(Cc1ccccc1)NC(=O)[C@H](CC(=O)O)NC(=O)[C@H](CCC(N)=O)NC(=O)[C@H](C)NC(=O)[C@H](C)NC(=O)[C@H](CCCCNC(=O)COCCOCCNC(=O)COCCOCCNC(=O)CC[C@H](NC(=O)CC[C@H](NC(=O)CCCCCCCCCCCCCCCCC(=O)O)C(=O)O)C(=O)O)NC(=O)[C@H](CO)NC(=O)[C@H](CC(=O)O)NC(=O)[C@H](CC(C)C)NC(=O)[C@](C)(Cc1ccccc1)NC(=O)[C@H](CCCCN)NC(=O)[C@H](CO)NC(=O)[C@@H](NC(=O)[C@H](CC(=O)O)NC(=O)[C@H](CO)NC(=O)[C@@H](NC(=O)[C@](C)(Cc1ccccc1)NC(=O)[C@H](CO)NC(=O)CNC(=O)[C@H](CCC(N)=O)NC(=O)C(C)(C)NC(=O)[C@@H](N)Cc1c[nH]cn1)[C@@H](C)O)C(C)C)C(C)C)C(=O)N[C@@H](C)C(=O)N[C@@H](CC(N)=O)C(N)=O` [Peptide 5] (H-H[Aib]QGS[αMeF]TSDVSK[αMeF]LDSK([AEEA-AEEA-γGlu-γGlu-C18 diacid])AAQD[αMeF]VQ[Aib]IAN-NH2; N-terminus assumed), for which the EC50 worked out at 7140 pM in experiment [1] and 283 pM in experiment [2]. For the same compound, the “% Relative Potency Ratio” value in experiment [2] (Table 6) turned out to be 49.9.

As to `CC[C@H](C)[C@H](NC(=O)[C@H](Cc1c[nH]c2ccccc12)NC(=O)[C@H](CCC(=O)O)NC(=O)[C@@H](NC(=O)[C@](C)(Cc1ccccc1)NC(=O)[C@H](CC(=O)O)NC(=O)[C@H](CCC(N)=O)NC(=O)[C@H](C)NC(=O)[C@H](C)NC(=O)[C@H](CCCCNC(=O)COCCOCCNC(=O)COCCOCCNC(=O)CC[C@H](NC(=O)CCCCCCCCCCCCCCCCC(=O)O)C(=O)O)NC(=O)[C@H](CO)NC(=O)[C@H](CC(=O)O)NC(=O)[C@H](CC(C)C)NC(=O)[C@](C)(Cc1ccccc1)NC(=O)[C@H](CCCCN)NC(=O)[C@H](CO)NC(=O)[C@@H](NC(=O)[C@H](CC(=O)O)NC(=O)[C@H](CO)NC(=O)[C@@H](NC(=O)[C@](C)(Cc1ccccc1)NC(=O)[C@H](CO)NC(=O)CNC(=O)[C@H](Cc1c[nH]cn1)NC(=O)C(C)(C)NC(=O)[C@@H](N)Cc1c[nH]cn1)[C@@H](C)O)C(C)C)C(C)C)C(=O)N[C@@H](C)C(=O)N[C@@H](CC(N)=O)C(N)=O` [Peptide 6] (H-H[Aib]HGS[αMeF]TSDVSK[αMeF]LDSK([AEEA-AEEA-γGlu-C18 diacid])AAQD[αMeF]VEWIAN-NH2; N-terminus assumed), the results for the EC50 in experiment [1] and in experiment [2] were 516 pM and 568 pM, respectively. The “% Relative Potency Ratio” value in experiment [2] (Table 6) was 1.8.

Turning to `CC(C)C[C@H](NC(=O)[C@H](Cc1c[nH]c2ccccc12)NC(=O)[C@H](CCC(N)=O)NC(=O)[C@@H](NC(=O)[C@H](Cc1ccccc1)NC(=O)[C@H](CC(=O)O)NC(=O)[C@H](CCC(N)=O)NC(=O)[C@H](C)NC(=O)[C@H](CCCNC(=N)N)NC(=O)[C@H](CCCCNC(=O)COCCOCCNC(=O)COCCOCCNC(=O)CC[C@H](NC(=O)CC[C@H](NC(=O)CCCCCCCCCCCCCCCCC(=O)O)C(=O)O)C(=O)O)NC(=O)[C@H](CO)NC(=O)[C@H](CC(=O)O)NC(=O)[C@H](CC(C)C)NC(=O)[C@](C)(Cc1ccccc1)NC(=O)[C@H](CCCCN)NC(=O)[C@H](CO)NC(=O)[C@@H](NC(=O)[C@H](CC(=O)O)NC(=O)[C@H](CO)NC(=O)[C@@H](NC(=O)[C@H](Cc1ccccc1)NC(=O)[C@@H](NC(=O)CNC(=O)[C@H](CCC(N)=O)NC(=O)C(C)(C)NC(=O)[C@@H](N)Cc1c[nH]cn1)[C@@H](C)O)[C@@H](C)O)C(C)C)C(C)C)C(=O)N[C@@H](CC(C)C)C(=O)NC(C)(C)C(=O)N[C@H](C(N)=O)[C@@H](C)O` [Peptide 463] (H-H[Aib]QGTFTSDVSK[αMeF]LDSK([AEEA-AEEA-γGlu-γGlu-C18 diacid])RAQDFVQWLL[Aib]T-NH2; N-terminus assumed), in experiment [2], the EC50 worked out at 274 pM.

Turning to “H(Aib)HGS(αMePhe)TSDK(O20C-O2OC-γE-γE-C20diacid)10SK(αMePhe)LDSRAAQD(αMePhe)VQ(Aib)IANT-amide [Peptide 391]”, in experiment [2], the “% Relative Potency Ratio” value was found to be 49.1.
